# US20220372430A1, “PROTISTS ENRICHED WITH LIPIDS RICH IN POLYUNSATURATED FATTY ACIDS” (BIOREA, priority 2015, published 2022)
# What was measured:
# [1] = test system: Crypthecodinium cohnii CCMP 316; assay: Culture of Crypthecodinium cohnii in medium containing selenomethionine; fatty acid profile and total lipids; type: cell-based
# Protocol: The total concentration of biomass was monitored by measuring the dry mass (filtration on GFC filter, Whatman, then drying in an oven under vacuum, 70° C. and −0.8 bar (80 kPa), for 24 h minimum before weighing). 10^7 cells/mL were extracted in order to quantify the total lipids. The method for extracting lipids is known to a person skilled in the art and is as described by the publication “Bligh E. G. & Dyer W. J., A rapid method of total lipid extraction and purification, Can. J. Biochem. Physiol 37 1959 911-917”, this method having been slightly adapted for microalga cells. Thus, for each measurement, approximately 10 mL of culture (biomass and medium), freshly sampled, was washed with demineralized water so as to remove the extracellular salts before lyophilization, then placed in a glass tube and centrifuged for 10 mins at 3600 g and at 4° C. After centrifugation, the supernatant was removed and the pellet containing the cells was lyophilized. Extraction was carried out with 6 mL of a monophasic CHCl3/MeOH (chloroform/methanol) mixture in proportions of 2/1 (V/V). In order to ensure complete extraction of the lipids, the tube was kept under stirring on a rocker for 6 hours in darkness, then stored at −20° C. before being analyzed by GC-FID (gas chromatography with flame ionization detection) in order to determine the quantity and the profiles of the total fatty acids extracted.
# It was produced in the same way as in Example 1, except that the protist is Crypthecodinium cohnii instead of Schizochytrium limacinum, and that a single source of selenium was used: selenomethionine (“SeMet”).
# Crypthecodinium cohnii is a protist, and more precisely a heterotrophic microalga. The strain Crypthecodinium cohnii CCMP 316 was obtained from the NCMA bank (https://ncma.bigelow.org).
# The results obtained are shown in FIG. 4 which gives respectively, for Crypthecodinium cohnii after incubation for 187 h, the percentage of compound in the total lipids on the y-axis, for each of the compounds (PUFA, DHA and SFA) shown on the x-axis, in the presence of selenomethionine (reference “With SeMet”), or in the absence of a selenium-containing compound (reference “Without Se”).
# Crypthecodinium cohnii = details: n-dodecane (oxygen carrier) added to culture medium of Crypthecodinium cohnii; cited from earlier work
# Schizochytrium limacinum = details: added exogenously to the culture medium of Schizochytrium, in particular Schizochytrium limacinum; cited from earlier work
# [2] = test system: Schizochytrium limacinum ATCC-MYA1381; assay: Culture of Schizochytrium limacinum in medium with a selenium-containing compound; fatty acid profile of total lipids by GC-FID; type: cell-based; details: 5 mg of selenium/L in culture medium, incubation 187 h
# Protocol: A strain of Schizochytrium limacinum ATCC-MYA1381 was obtained from the ATCC bank (www.atcc.org).
# The growth characteristics as well as the production of lipids by Schizochytrium limacinum were measured in the presence of different forms of selenium and compared in the absence of such additives (control referenced “Without Se” in the figures).
# Pre-culture of the strain Schizochytrium limacinum ATCC-MYA1381 was carried out in standard liquid medium, the composition of which is given in Table 1. To this end, starter cultures of 50 mL were started in a 250 mL Erlen flask from a colony isolated on 633 M3 chytrid agar (www.atcc.org) and cultured at 25° C.±1° C. in heterotrophy for 48 h in this standard liquid medium. The 100 mL inoculum is then started in a 500 mL Erlen flask from these “starter” cultures at an initial concentration of 1.0×10^6 cells/m/L in the same culture conditions as the latter for 4 days. The cultures were continuously aerated by orbital stirring at 100 rpm (“revolutions per minute”).
# The cultures for enrichment with selenium-containing compounds were started from the inoculum at an initial concentration of 1.0×10^6 cells/mL for a final volume of 400 mL in a 2.0 L Erlen flask at 25° C.±1° C. in heterotrophy for 187 h.
# The cultures were continuously aerated by orbital stirring at 100 rpm. […]
# The total concentration of biomass was monitored by measuring the dry mass (filtration on GFC filter, Whatman, then drying in an oven under vacuum, 70° C. and −0.8 bar (80 kPa), for 24 h minimum before weighing). 10^7 cells/mL were extracted in order to quantify the total lipids. […] In order to ensure complete extraction of the lipids, the tube was kept under stirring on a rocker for 6 hours in darkness, then stored at −20° C. before being analyzed by GC-FID (gas chromatography with flame ionization detection) in order to determine the quantity and the profiles of the total fatty acids extracted. […]
smiles,measurement,setting,value
C[Se]CC[C@H](N)C(=O)O [selenomethionine],percentage of DHA in the total lipids,"[1]; 5 mg/L of selenium in culture medium, incubation 187 h, control without Se 24%",34%
same,percentage of PUFA in the total lipids,"[1]; 5 mg/L of selenium in culture medium, incubation 187 h, control without Se 25%",35%
same,percentage of SFA in the total lipids,"[1]; 5 mg/L of selenium in culture medium, incubation 187 h, control without Se 64%",53.5%
same,increase in total lipid content in the dry biomass relative to the control medium,[1]; selenium-containing culture medium versus control medium,34%
CCCCCCCCCCCC [n-dodecane],"production of DHA, of total lipids",Crypthecodinium cohnii,51%
OC[C@H]1O[C@H](O[C@H]2O[C@H](CO)[C@@H](O)[C@H](O)[C@H]2O)[C@H](O)[C@@H](O)[C@@H]1O [trehalose],fermentation yield of polyunsaturated fatty acids,Schizochytrium limacinum,significantly increase
C[N+](C)(C)CC(=O)[O-] [glycine betaine],fermentation yield of polyunsaturated fatty acids,Schizochytrium limacinum,significantly increase
"O=[Se](O)O [selenite, sodium selenite]",percentage of DHA in the total lipids,[2]; control without Se 41%,54%
same,percentage of SFA in the total lipids,[2]; control without Se 44%,26%
same,percentage of PUFA in the total lipids,[2]; control without Se 53%,73%
